Measurements from patent publication US20170260285A1, “METHODS FOR TREATING CANCER” (UNIVERSITY OF IOWA RESEARCH FOUNDATION, priority 2014, published 2017).
Entries after “also recorded” stand apart in the source; their conditions may differ. Residues, ends and D or L forms follow the SMILES beside them. *: point of attachment. Cbz = O=C(OCc1ccccc1)*; CH2F = FC*

What was measured:
SQ20B HNSCC cells [1] = test: IL-1α release by ELISA in SQ20B cells; assay type: cell-based, human; conditions: for erlotinib-induced IL-1α release: agent 1 h then erlotinib 5 μM 48 h; for baseline IL-1α levels: agent 1 h then DMSO 48 h
Experimental: (§1) Erlotinib (ERL; Tarceva) and anakinra (ANA; Kineret) were obtained from the inpatient pharmacy at the University of Iowa Hospitals and Clinics. Drugs were added to cells at final concentrations of 5 μM ERL and 10 ng/mL or 50 ng/mL ANA. Human IgG and […] (DMSO) were used as controls and were obtained from Sigma Aldrich. Human IL-1α, IL-1β, and IL-18Rα neutralizing antibodies were obtained from R&D Systems and were used at a concentration of 0.5 μg/mL. Recombinant human IL-1α was obtained from Life Technologies and administered at a concentration of 1 ng/mL. Ac-Y-VAD-cho, a caspase-1 inhibitor (CalBioChem), was suspended in DMSO and added at a concentration of […], a pan-caspase inhibitor (Promega) was diluted in DMSO and added at a concentration of 20 μM. TLR agonists were used at the following concentrations: Pam3CSK4 (200ng/mL), FSL-1 (100 ng/mL), Poly I:C (20 μg/mL), LPS (200 ng/mL), Flagellin (200 ng/mL), Gardiquimod (1 μg/mL), CL075 (1 μg/mL), and E. coli DNA (1 μg/mL). All TLR agonists were obtained from InvivoGen. The required volume of each drug was added directly to complete cell culture media on cells to achieve the indicated final concentrations.
(§2) Levels of IL-6, IL-1α and IL-1β of treated cells were determined by ELISA. The culture media of the treated cells were harvested and each cytokine was detected according to the manufacturer's protocol using the Human Quantikine ELISA Kits (R&D Systems, Minneapolis, Minn.).
(§3) Erlotinib (ERL; Tarceva), anakinra (ANA; Kineret) and N-acetyl cysteine (NAC; Acetadote) were obtained from the inpatient pharmacy at the University of Iowa Hospitals and Clinics. Drugs were added to cells at final concentrations of 5 μM ERL, 10 ng/mL or 50 ng/mL ANA and 20 mM NAC. Human IgG and […] (DMSO) were used as controls and were obtained from Sigma Aldrich. Pegylated catalase (CAT; Sigma Aldrich) was used at a final concentration of 100 U/mL. Human IL-1α, IL-1β, and IL-18Ra neutralizing antibodies were obtained from R&D Systems and were used at a concentration of 0.5 μg/mL. Recombinant human IL-1α was obtained from Life Technologies and administered at a concentration of 1 ng/mL. Ac-Y-VAD-cho (CalBioChem) was suspended in DMSO and used at 5 μM. Z-VAD-fmk (Promega) was diluted in DMSO and used at 20 μM. TLR agonists were used at the following concentrations: Pam3CSK4 (200 ng/mL), FSL-1 (100 ng/mL), Poly I:C (20 μg/mL), LPS (200 ng/mL), Flagellin (200 ng/mL), Gardiquimod (1 μg/mL), CL075 (1 μg/mL), and E. coli DNA (1 μg/mL). All TLR agonists were obtained from InvivoGen. The required volume of each drug was added directly to complete cell culture media on cells to achieve the indicated final concentrations.
(§4) Levels of IL-6, IL-1α and IL-1β of treated cells were determined by ELISA. The culture media of the treated cells were harvested and each cytokine was detected according to the manufacturer's protocol using Human Quantikine ELISA Kits (R&D Systems, Minneapolis, Minn.).

Cal-27 HNSCC cells [2] = test: IL-1α release by ELISA in Cal-27 cells; assay type: cell-based, human; conditions: for erlotinib-induced IL-1α release: agent 1 h then erlotinib 5 μM 48 h; for baseline IL-1α levels: agent 1 h then DMSO 48 h
Experimental: as §1, §2, §3, §4

Cal-27 HNSCC cells [3] = test: IL-6 secretion by ELISA in Cal-27 cells; assay type: cell-based, human; conditions: for erlotinib-induced IL-6: agent pre-treatment then erlotinib 5 μM 48 h; for baseline IL-6 (absence of erlotinib): agent 2 h (1 h for caspase inhibitors, NAC, CAT) then DMSO 48 h
From the text: (§5) Cal-27 and FaDu human head and neck squamous carcinoma (HNSCC) cells were obtained from the American Type Culture Collection (ATCC, Manassas, Va.). SQ20B HNSCC cells (16) were a gift from Dr. Anjali Gupta (Department of Radiation Oncology, The University of Iowa). All HNSCC cell lines are EGFR positive and are sensitive to EGFR inhibitors. All cell lines were authenticated by the ATCC for viability (before freezing and after thawing), growth, morphology and isoenzymology. Cells were stored according to the supplier's instructions and used over a course of no more than 3 months after resuscitation of frozen aliquots. Cultures were maintained in 5% CO2 and air humidified in a 37° C. incubator.
as §1, §2
as §5, with “(20)” for “(16)”
as §3, with “The required volume of each drug was added directly to complete cell culture media on cells to achieve the indicated final concentrations.” left out

SQ20B HNSCC cells [4] = test: IL-6 secretion by ELISA in SQ20B cells; assay type: cell-based, human; conditions: for erlotinib-induced IL-6: agent pre-treatment then erlotinib 5 μM 48 h; for baseline IL-6 (absence of erlotinib): agent 2 h (1 h for caspase inhibitors, NAC, CAT) then DMSO 48 h
From the text: as §5, §1, §2
as §5, with “(20)” for “(16)”
as §3, with “The required volume of each drug was added directly to complete cell culture media on cells to achieve the indicated final concentrations.” left out

SQ20B cells = test: Clonogenic survival assay; assay type: cell-based, human; conditions: Z-VAD 20 μM with erlotinib
Experimental: Clonogenic survival was determined as previously described (17). Individual assays were performed with multiple dilutions with at least four cloning dishes per data point, repeated in at least 3 separate experiments. Tumor cell implantation: Female 4-5 week old athymic-nu/nu nude mice were purchased from Harlan Laboratories (Indianapolis, IN). Mice were housed in a pathogen-free barrier room in the Animal Care Facility at the University of Iowa and handled using aseptic procedures. All procedures were approved by the IACUC committee of the University of Iowa and conformed to the guidelines established by the NIH. Mice were allowed at least 3 days to acclimate prior to beginning experimentation, and food and water were made freely available. Tumor cells (shCON or shMyD88) were inoculated into nude mice by subcutaneous injection of 0.1 mL aliquots of saline containing 2×10^6 FaDu cells into the right flank using 26-gauge needles.
Clonogenic survival was determined as previously described (22). Individual assays were performed with multiple dilutions with at least four cloning dishes per data point, repeated in at least 3 separate experiments.

SQ20B and Cal27 cells = assay type: cell-based
Experimental: To determine whether cell death is responsible for IL-1α release, we used Z-VAD-fmk, a pan-caspase inhibitor, to prevent cell death. We also tested Ac-Y-VAD-cho, caspase-1 inhibitor, to assess inflammasome involvement. After testing various combinations of these inhibitors, we found an optimal concentration of 20 μM Z-VAD and 5μM Y-VAD. […] To confirm that the pan-caspase inhibitor was effectively blocking cell death, we performed a clonogenic assay with erlotinib- and Z-VAD-treated cells in SQ20B cells.

HNSCC tumor cell lines = conditions: previous studies (ref. 10); cited from earlier work
[5] = listed as pan-caspase inhibitor

For CC(=O)N[C@@H](CS)C(=O)O [NAC, N-acetyl cysteine], the “erlotinib-induced IL-1α release” value (SQ20B HNSCC cells [1]) was “significantly suppressed”, the “erlotinib-induced IL-1α release” value (Cal-27 HNSCC cells [2]) was “significantly suppressed” and the “erlotinib-induced IL-6” value (Cal-27 HNSCC cells [3]) was “significantly suppressed”. For the same molecule, the “erlotinib-induced IL-6” value (SQ20B HNSCC cells [4]) was “significantly suppressed”.

In the case of COC(=O)C[C@H](NC(=O)[C@H](C)NC(=O)[C@@H](NC(=O)OCc1ccccc1)C(C)C)C(=O)CF [Z-VAD-fmk] (Cbz-Val-Ala-Asp(OMe)-CH2F), the “baseline IL-1α levels” value (SQ20B HNSCC cells [1]) is reported as “significantly reduced”, the “baseline IL-1α levels” value (SQ20B HNSCC cells [1]; listed as Z-VAD) is reported as “significantly reduce” and the “erlotinib-induced IL-1α release” value (SQ20B HNSCC cells [1]) is reported as “significantly reduced”. The “erlotinib-induced IL-1α release” value (SQ20B HNSCC cells [1]; listed as Z-VAD) was “significantly reduce”, the “erlotinib-induced IL-1α release” value (SQ20B HNSCC cells [1]; listed as ZVAD) was “blocked” and the “erlotinib-induced IL-1α release” value (SQ20B HNSCC cells [1]; [5]) was “blocked”. The erlotinib-induced cell death (SQ20B cells) was “blocked”, the erlotinib-induced cell death (SQ20B cells; listed as Z-VAD) was “significantly blocked” and the erlotinib-induced cell death (SQ20B cells; listed as ZVAD) was “blocked”. For the same molecule, the erlotinib-induced cell death (SQ20B cells; [5]) was “blocked”, the “baseline IL-1α levels” value (Cal-27 HNSCC cells [2]) was “significantly reduced” and the “baseline IL-1α levels” value (Cal-27 HNSCC cells [2]; listed as Z-VAD) was “significantly reduce”. For the same molecule, the “erlotinib-induced IL-1α release” value (Cal-27 HNSCC cells [2]) was “significantly reduced”, the “erlotinib-induced IL-1α release” value (Cal-27 HNSCC cells [2]; listed as Z-VAD) was “significantly reduce” and the “erlotinib-induced IL-1α release” value (Cal-27 HNSCC cells [2]; listed as ZVAD) was “blocked”. The “erlotinib-induced IL-1α release” value (Cal-27 HNSCC cells [2]; [5]) was “blocked” and the “highest dose that did not result in toxicity (optimal concentration)” value (SQ20B and Cal27 cells) was 20 µM.

In the case of CS(=O)(=O)CCNCc1ccc(-c2ccc3ncnc(Nc4ccc(OCc5cccc(F)c5)c(Cl)c4)c3c2)o1 [lapatinib], the “IL-6 expression/secretion in HNSCC cell lines treated with EGFRIs” value (HNSCC tumor cell lines) is listed as “significant upregulation”.

In the case of Ac-Y-VAD-cho, the “erlotinib-induced IL-1α release” value (SQ20B HNSCC cells [1]) is reported as “did not see a decrease; also recorded: not observed”, the “baseline IL-1α levels” value (Cal-27 HNSCC cells [2]) is reported as “not observed” and the “erlotinib-induced IL-1α release” value (Cal-27 HNSCC cells [2]) is reported as “did not see a decrease; also recorded: not observed”. For the same molecule, the “highest dose that did not result in toxicity (optimal concentration)” value (SQ20B and Cal27 cells) was 5 µM, the “erlotinib-induced IL-6” value (Cal-27 HNSCC cells [3]) was “did not affect” and the “erlotinib-induced IL-6” value (SQ20B HNSCC cells [4]) was “did not affect”.

For anakinra, the “baseline IL-6 (absence of erlotinib)” value (Cal-27 HNSCC cells [3]) was “significantly reduced”, the “erlotinib-induced IL-6” value (Cal-27 HNSCC cells [3]) was “significantly reduced; also recorded: effectively blocked” and the “erlotinib-induced IL-6” value (Cal-27 HNSCC cells [3]; listed as Anakinra) was “effectively blocked”. The “baseline IL-6 (absence of erlotinib)” value (SQ20B HNSCC cells [4]) was “significantly reduced”, the “erlotinib-induced IL-6” value (SQ20B HNSCC cells [4]) was “significantly reduced; also recorded: effectively blocked” and the “erlotinib-induced IL-6” value (SQ20B HNSCC cells [4]; listed as Anakinra) was “effectively blocked”.

In the case of panitumumab, the “IL-6 expression/secretion in HNSCC cell lines treated with EGFRIs” value (HNSCC tumor cell lines) is given as “significant upregulation”.

B1: Exogenous IL-1α: Recombinant human IL-1α from Life Technologies, 1 ng/mL (protein, UniProt P01583 113-271, looked up)
Interleukin-1 alpha: SAPFSFLSNVKYNFMRIIKYEFILNDALNQSIIRANDQYLTAAALHNLDEAVKFDMGAYKSSKDDAKITVILRISKTQLYVTAQDEDQPVLLKEMPEIPKTITGSETNLLFFWETHGTKNYFTSVAHPNLFIATKQDYWVCLAGGPPSITDFQILENQA
With B1 the “baseline IL-6 (absence of erlotinib)” value (Cal-27 HNSCC cells [3]) was “increased”, the “erlotinib-induced IL-6” value (Cal-27 HNSCC cells [3]) was “increased” and the “baseline IL-6 (absence of erlotinib)” value (SQ20B HNSCC cells [4]) was “increased”. The “erlotinib-induced IL-6” value (SQ20B HNSCC cells [4]) was “increased”.

B2: CAT: Pegylated catalase (Sigma Aldrich), antioxidant, 100 U/mL (protein, UniProt P00432 2-527, looked up)
Catalase: ADNRDPASDQMKHWKEQRAAQKPDVLTTGGGNPVGDKLNSLTVGPRGPLLVQDVVFTDEMAHFDRERIPERVVHAKGAGAFGYFEVTHDITRYSKAKVFEHIGKRTPIAVRFSTVAGESGSADTVRDPRGFAVKFYTEDGNWDLVGNNTPIFFIRDALLFPSFIHSQKRNPQTHLKDPDMVWDFWSLRPESLHQVSFLFSDRGIPDGHRHMNGYGSHTFKLVNANGEAVYCKFHYKTDQGIKNLSVEDAARLAHEDPDYGLRDLFNAIATGNYPSWTLYIQVMTFSEAEIFPFNPFDLTKVWPHGDYPLIPVGKLVLNRNPVNYFAEVEQLAFDPSNMPPGIEPSPDKMLQGRLFAYPDTHRHRLGPNYLQIPVNCPYRARVANYQRDGPMCMMDNQGGAPNYYPNSFSAPEHQPSALEHRTHFSGDVQRFNSANDDNVTQVRTFYLKVLNEEQRKRLCENIAGHLKDAQLFIQKKAVKNFSDVHPEYGSRIQALLDKYNEEKPKNAVHTYVQHGSHLSAREKANL
modifications: PEG
notes: Pegylated catalase (Sigma Aldrich), antioxidant, 100 U/mL
With B2 the “erlotinib-induced IL-1α release” value (SQ20B HNSCC cells [1]) was “significantly suppressed”, the “erlotinib-induced IL-1α release” value (Cal-27 HNSCC cells [2]) was “significantly suppressed” and the “erlotinib-induced IL-6” value (Cal-27 HNSCC cells [3]) was “significantly suppressed”. The “erlotinib-induced IL-6” value (SQ20B HNSCC cells [4]) was “significantly suppressed”.
